Test results published in patent publication US7301020B2, “Macrolide analogs and methods for identifying same” (priority 2003, dated 2007).

Target: T1, G-actin (Oryctolagus cuniculus, UniProt P68135)
T1 construct: F-actin is purified from rabbit skeletal muscle using a standard protocol; from tissue; host or cells: rabbit skeletal muscle
Assay: Prodan-actin polymerization assay
Assay type: biochemical, rabbit
Conditions: stoichiometric binding conditions
Protocol: FIG. 5: Time course for G-actin polymerization. Prodan-labeled G-actin is mixed to a final concentration of 5 μM with a pre-formed complex of G-actin-KBC at the following concentrations: a: 0 nM; b: 1 nM; c: 5 nM; d: 10 nM; e: 20 nM; f: 50 nM; g: 250 nM) and the polymerization reaction initiated by the addition of KCl and MgCl2 to 0.1 M and 2 mM respectively at 20°. Excitation at 385 nm and Emission at 465 nm.
Prodan-Actin Polymerization assay The fluorescence emission spectrum of a 5 μM solution of Prodan-labeled G-actin is recorded in G-buffer. Polymerization is initiated by adding KCl and MgCl2 to 100 mM and 2 mM respectively and the time course of the reaction is monitored continuously over a 60-minute period time by recording the emission intensity at 465 nm. In other experiments the progress of actin polymerization is determined by recording the Prodan-actin emission spectrum at defined times during the reaction.
The G-actin-KabC complex inhibits actin polymerization by capping the (+)-end of the filament. […] Adding KCl and MgCl2 to 100 mM and 2 mM respectively polymerizes this G-actin mixture and the progress of the reaction is monitored by the increase in Prodan-actin fluorescence at 465 nm (FIG. 5; Marriott et al, 1988). […]

Kabiramide C [KabC] was tested. Which actin monomer sequestering did it give?
Its actin monomer sequestering is “sequester actin monomers and raise the critical concentration for actin polymerization”.
